Laboratory results: patent US9302999B2, “Substituted triazoles as herbicides” (E. I. DU PONT DE NEMOURS AND COMPANY, priority 2012, dated 2016)

How the values were obtained:
Format in all cases: in vivo
[1] = tested on: cocklebur (common cocklebur, Xanthium strumarium); experiment: Test C pre-/postemergence: cocklebur
Method in brief: (§1)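 Preemergence on seeds in loam/sand, postemergence on 2–18 cm (1–4-leaf) plants in peat-based medium; compounds in non-phytotoxic solvent with surfactant. After 13–15 days in greenhouse, visual rating versus controls, 0 (no effect) to 100 (complete control).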

[2] = tested on: common (oilseed) sunflower (Helianthus annuus); experiment: Test C pre-/postemergence: sunflower; conditions: Preemergence
Method in brief: as §1

[3] = tested on: woolly cupgrass (Eriochloa villosa); experiment: Test C pre-/postemergence: woolly cupgrass
Method in brief: as §1

[4] = tested on: barley (winter barley, Hordeum vulgare); experiment: Test C postemergence: barley
Method in brief: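 Visual 0–100 injury score vs untreated controls (0 none, 100 complete control), taken 13–15 d after treatment. Postemergence spray on potted plants, 2–18 cm, 1–4 leaves; greenhouse.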

[5] = tested on: field violet (Viola arvensis); experiment: Test D pre-/postemergence: field violet
Method in brief: (§2)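 Pre- and postemergence herbicide screen. Soil for pre: silt loam; post medium: peat moss, vermiculite, wetting agent, starter nutrients. Plant stage at post: 1- to 4-leaf. Readout: visual % control, 14–21 days.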

[6] = tested on: oilseed rape (Brassica napus); experiment: Test D pre-/postemergence: oilseed rape
Method in brief: as §2

[7] = tested on: deadnettle (henbit deadnettle, Lamium amplexicaule); experiment: Test D pre-/postemergence: deadnettle
Method in brief: as §2

[8] = tested on: kochia (Kochia scoparia); experiment: Test D pre-/postemergence: kochia
Method in brief: as §2

[9] = tested on: rice (Oryza sativa); experiment: Test B flooded paddy: rice; conditions: Flood; 250 g ai/ha; applied to paddy water at 2-leaf stage; visually evaluated after 13 to 15 days
Method in brief: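 Visual ratings on a 0–100 scale, where 0 means no effect and 100 means complete control, were assigned by comparison with controls 13 to 15 days after treatment. Compounds went into paddy water over 2-leaf plants flooded to 3 cm.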

[10] = Postemergence, 31 g ai/ha, scale 0 to 100 (0 no effect, 100 complete control)
[11] = Postemergence, 62 g ai/ha, scale 0 to 100 (0 no effect, 100 complete control)
[12] = Postemergence, 125 g ai/ha, scale 0 to 100, 0 no effect, 100 complete control
[13] = Postemergence, 250 g ai/ha, scale 0 to 100
[14] = Preemergence, 31 g ai/ha, scale of 0 to 100, 0 is no effect, 100 is complete control
[15] = Preemergence, 62 g ai/ha, scale 0 to 100, 0 no effect, 100 complete control
[16] = Preemergence, 125 g ai/ha, scale 0 to 100, 0 no effect, 100 complete control
[17] = Preemergence, 250 g ai/ha, scale 0 to 100, 0 no effect, 100 complete control
[18] = 31 g ai/ha, scale of 0 to 100, 0 is no effect, 100 is complete control
[19] = 62 g ai/ha, scale of 0 to 100, 0 is no effect, 100 is complete control
[20] = 125 g ai/ha, scale 0 to 100, 0 no effect, 100 complete control
[21] = 250 g ai/ha, scale 0 to 100, 0 no effect, 100 complete control
[22] = Preemergence, 62 g ai/ha, scale of 0 to 100, 0 is no effect, 100 is complete control
[23] = 31 g ai/ha, scale 0 to 100 (0 no effect, 100 complete control)
[24] = 62 g ai/ha, scale 0 to 100 (0 no effect, 100 complete control)
[25] = Postemergence, 250 g ai/ha, scale 0 to 100 (0 no effect, 100 complete control)
[26] = Postemergence, 16 g ai/ha, scale 0 to 100
[27] = Preemergence, 16 g ai/ha, scale 0 to 100 (0 no effect, 100 complete control)
[28] = Preemergence, 31 g ai/ha, scale 0 to 100 (0 no effect, 100 complete control)
[29] = Preemergence, 62 g ai/ha, scale 0 to 100
[30] = Preemergence, 125 g ai/ha, scale 0 to 100
[31] = Preemergence, 250 g ai/ha, scale 0 to 100
[32] = Postemergence, 8 g ai/ha, scale 0 to 100

Cc1nn(-c2ccc(C(F)(F)F)cc2)nc1Cc1ccnc(C(F)(F)F)c1 [Compound 47, 4-[[5-methyl-2-[4-(trifluoromethyl)phenyl]-2H-1,2,3-triazol-4-yl]methyl]-2-(trifluoromethyl)pyridine]
Plant response rating, Cocklebur [1, 10]: 10
Plant response rating, Cocklebur [1, 11]: 65
Plant response rating, Cocklebur [1, 12]: 70
Plant response rating, Cocklebur [1, 13]: 70
Plant response rating, Cocklebur [1, 14]: 0
Plant response rating, Cocklebur [1, 15]: 0
Plant response rating, Cocklebur [1, 16]: 0
Plant response rating, Cocklebur [1, 17]: 5
Plant response rating, Sunflower [2, 18]: 0
Plant response rating, Sunflower [2, 19]: 0
Plant response rating, Sunflower [2, 20]: 0
Plant response rating, Sunflower [2, 21]: 10
Plant response rating, Cupgrass, Woolly [3, 10]: 55
Plant response rating, Cupgrass, Woolly [3, 11]: 65
Plant response rating, Cupgrass, Woolly [3, 12]: 80
Plant response rating, Cupgrass, Woolly [3, 13]: 90
Plant response rating, Cupgrass, Woolly [3, 14]: 45
Plant response rating, Cupgrass, Woolly [3, 22]: 80
Plant response rating, Cupgrass, Woolly [3, 16]: 95
Plant response rating, Cupgrass, Woolly [3, 17]: 98
Plant response rating, Barley [4, 23]: 35
Plant response rating, Barley [4, 24]: 45
Plant response rating, Barley [4, 20]: 50
Plant response rating, Barley ([4]; 250 g ai/ha, scale 0 to 100): 55

Cc1nn(-c2ccc(F)cc2)nc1Oc1ccnc(C(F)(F)F)c1 [Compound 129, 4-[[2-(4-fluorophenyl)-5-methyl-2H-1,2,3-triazol-4-yl]oxy]-2-(trifluoromethyl)pyridine]
Plant response rating, Cocklebur [1, 10]: 5
Plant response rating, Cocklebur [1, 11]: 10
Plant response rating, Cocklebur [1, 12]: 15
Plant response rating, Cocklebur [1, 13]: 25
Plant response rating, Cocklebur [1, 14]: 0
Plant response rating, Cocklebur [1, 15]: 0
Plant response rating, Cocklebur [1, 16]: 0
Plant response rating, Cocklebur [1, 17]: 0
Plant response rating: Field Violet [5, 10]: 100
Plant response rating: Field Violet [5, 11]: 100
Plant response rating: Field Violet [5, 12]: 100
Plant response rating: Field Violet [5, 25]: 80
Plant response rating, Field Violet [5, 26]: 40
Plant response rating, Field Violet [5, 27]: 100
Plant response rating, Field Violet [5, 28]: 100
Plant response rating, Field Violet [5, 29]: 100
Plant response rating, Field Violet [5, 30]: 100
Plant response rating, Field Violet [5, 31]: 100
Plant response rating, Sunflower [2, 18]: 0
Plant response rating, Sunflower [2, 19]: 0
Plant response rating, Sunflower [2, 20]: 0
Plant response rating, Sunflower [2, 21]: 0
Plant response rating, Cupgrass, Woolly [3, 10]: 35
Plant response rating, Cupgrass, Woolly [3, 11]: 65
Plant response rating, Cupgrass, Woolly [3, 12]: 65
Plant response rating, Cupgrass, Woolly [3, 13]: 70
Plant response rating, Cupgrass, Woolly [3, 14]: 80
Plant response rating, Cupgrass, Woolly [3, 22]: 95
Plant response rating, Cupgrass, Woolly [3, 16]: 98
Plant response rating, Cupgrass, Woolly [3, 17]: 98
Plant response rating: Oilseed Rape [6, 10]: 80
Plant response rating: Oilseed Rape [6, 11]: 95
Plant response rating: Oilseed Rape [6, 12]: 100
Plant response rating: Oilseed Rape [6, 25]: 100
Plant response rating, Oilseed Rape [6, 26]: 80
Plant response rating, Oilseed Rape [6, 27]: 0
Plant response rating, Oilseed Rape [6, 28]: 0
Plant response rating, Oilseed Rape [6, 29]: 10
Plant response rating, Oilseed Rape [6, 30]: 30
Plant response rating, Oilseed Rape [6, 31]: 60
Plant response rating: Deadnettle [7, 10]: 75
Plant response rating: Deadnettle [7, 11]: 80
Plant response rating: Deadnettle [7, 12]: 98
Plant response rating: Deadnettle [7, 25]: 100
Plant response rating, Deadnettle [7, 26]: 60
Plant response rating, Deadnettle [7, 27]: 0
Plant response rating, Deadnettle [7, 28]: 10
Plant response rating, Deadnettle [7, 29]: 100
Plant response rating, Deadnettle [7, 30]: 100
Plant response rating, Deadnettle [7, 31]: 100
Plant response rating: Kochia [8, 10]: 98
Plant response rating: Kochia [8, 11]: 100
Plant response rating: Kochia [8, 12]: 100
Plant response rating: Kochia [8, 25]: 100
Plant response rating, Kochia [8, 26]: 98
Plant response rating, Kochia [8, 27]: 20
Plant response rating, Kochia [8, 28]: 25
Plant response rating, Kochia [8, 29]: 75
Plant response rating, Kochia [8, 30]: 100
Plant response rating, Kochia [8, 31]: 100
Plant response rating, Barley [4, 23]: 30
Plant response rating, Barley [4, 24]: 35
Plant response rating, Barley [4, 20]: 45
Plant response rating, Barley ([4]; 250 g ai/ha, scale 0 to 100): 50

Fc1ccc(-n2nc(Cc3ccnc(C(F)(F)F)c3)c(OCC(F)(F)F)n2)cc1 [Compound 142]
Plant response rating, Cocklebur [1, 11]: 30
Plant response rating, Cocklebur [1, 12]: 40
Plant response rating, Cocklebur [1, 13]: 50
Plant response rating, Cocklebur [1, 14]: 0
Plant response rating, Cocklebur [1, 22]: 10
Plant response rating, Cocklebur [1, 16]: 10
Plant response rating, Sunflower [2, 18]: 15
Plant response rating, Sunflower [2, 20]: 15
Plant response rating, Sunflower [2, 21]: 25
Plant response rating, Cupgrass, Woolly [3, 10]: 40
Plant response rating, Cupgrass, Woolly [3, 11]: 40
Plant response rating, Cupgrass, Woolly [3, 12]: 75
Plant response rating, Cupgrass, Woolly [3, 13]: 85
Plant response rating, Cupgrass, Woolly [3, 14]: 55
Plant response rating, Cupgrass, Woolly [3, 22]: 70
Plant response rating, Cupgrass, Woolly [3, 16]: 95
Plant response rating, Cupgrass, Woolly [3, 17]: 98
Plant response rating, Rice (0 to 100 scale, 0 is no effect, 100 is complete control) [9]: 60
Plant response rating, Barley [4, 23]: 20
Plant response rating, Barley [4, 24]: 35
Plant response rating, Barley [4, 20]: 40
Plant response rating, Barley ([4]; 250 g ai/ha, scale 0 to 100): 45

Cc1nn(-c2ccc(F)c(F)c2)nc1Oc1ccnc(C(F)(F)F)c1 [Compound 145]
Plant response rating, Cocklebur [1, 10]: 10
Plant response rating, Cocklebur [1, 11]: 15
Plant response rating, Cocklebur [1, 12]: 65
Plant response rating, Cocklebur [1, 13]: 65
Plant response rating, Cocklebur [1, 14]: 0
Plant response rating, Cocklebur [1, 22]: 0
Plant response rating, Cocklebur [1, 16]: 10
Plant response rating: Field Violet [5, 10]: 75
Plant response rating: Field Violet [5, 11]: 95
Plant response rating: Field Violet [5, 12]: 95
Plant response rating, Field Violet [5, 32]: 70
Plant response rating, Field Violet [5, 26]: 80
Plant response rating, Sunflower [2, 18]: 0
Plant response rating, Sunflower [2, 19]: 5
Plant response rating, Sunflower [2, 20]: 20
Plant response rating, Sunflower [2, 21]: 25
Plant response rating, Cupgrass, Woolly [3, 10]: 20
Plant response rating, Cupgrass, Woolly [3, 11]: 25
Plant response rating, Cupgrass, Woolly [3, 12]: 40
Plant response rating, Cupgrass, Woolly [3, 13]: 75
Plant response rating, Cupgrass, Woolly [3, 14]: 55
Plant response rating, Cupgrass, Woolly [3, 22]: 90
Plant response rating, Cupgrass, Woolly [3, 16]: 95
Plant response rating, Cupgrass, Woolly [3, 17]: 98
Plant response rating, Rice (0 to 100 scale, 0 is no effect, 100 is complete control) [9]: 80
Plant response rating: Oilseed Rape [6, 10]: 50
Plant response rating: Oilseed Rape [6, 11]: 70
Plant response rating: Oilseed Rape [6, 12]: 100
Plant response rating, Oilseed Rape [6, 32]: 0
Plant response rating, Oilseed Rape [6, 26]: 50
Plant response rating: Deadnettle [7, 10]: 70
Plant response rating: Deadnettle [7, 11]: 90
Plant response rating: Deadnettle [7, 12]: 100
Plant response rating, Deadnettle [7, 32]: 0
Plant response rating, Deadnettle [7, 26]: 50
Plant response rating: Kochia [8, 10]: 98
Plant response rating: Kochia [8, 11]: 100
Plant response rating: Kochia [8, 12]: 100
Plant response rating, Kochia [8, 32]: 80
Plant response rating, Kochia [8, 26]: 90
Plant response rating, Barley [4, 23]: 15
Plant response rating, Barley [4, 24]: 20
Plant response rating, Barley [4, 20]: 35
Plant response rating, Barley ([4]; 250 g ai/ha, scale 0 to 100): 45
